Reference: patent US20230233545A1, “TREATMENT OF ATRIAL DYSFUNCTION” (MyoKardia, Inc., priority 2020, published 2023)

How the values were obtained:
[1] = target: left atrial (LA) myofibrils (Sus scrofa, UniProt K7GMH0); assay: Steady-state ATPase (ATP turnover rate), LA myofibrils; type: biochemical, Yucatan mini-pig
Method: The ability of Compound I to increase myocardial ATP turnover rates selectively was evaluated using both left atrial (LA) and left ventricular (LV) myofibrils prepared from Yucatan mini-pig hearts, as well as subfragment-1 (51) myosins from cardiac (recombinant human), skeletal (rabbit psoas) and smooth (chicken gizzard) muscles. Pig hearts were harvested, and the left atria/ventricles were freshly excised, dissected, frozen in liquid nitrogen and stored at −80° C. […] This enzyme system couples the formation of ADP to the oxidation of NADH leading to an absorbance change at 340 nm. […] All measurements were carried out at 25° C. using a plate reader (SpectraMax; Molecular Devices, LLC, CA, USA) to monitor the change in absorbance as a function of time; data were normalized to a per-second scale as described in Green et al., Science (2016) 351(6273):617-21. […]

[2] = target: T1, recombinant human cardiac S1 myosin (Homo sapiens, UniProt P12883); assay: Actin-activated ATPase, cardiac S1 myosin; type: biochemical; conditions: at 3 μM
T1 construct: subfragment-1 (51) myosins from cardiac (recombinant human), skeletal (rabbit psoas) and smooth (chicken gizzard) muscles; made in house
T1 sequence (P12883 1-808 limits assumed): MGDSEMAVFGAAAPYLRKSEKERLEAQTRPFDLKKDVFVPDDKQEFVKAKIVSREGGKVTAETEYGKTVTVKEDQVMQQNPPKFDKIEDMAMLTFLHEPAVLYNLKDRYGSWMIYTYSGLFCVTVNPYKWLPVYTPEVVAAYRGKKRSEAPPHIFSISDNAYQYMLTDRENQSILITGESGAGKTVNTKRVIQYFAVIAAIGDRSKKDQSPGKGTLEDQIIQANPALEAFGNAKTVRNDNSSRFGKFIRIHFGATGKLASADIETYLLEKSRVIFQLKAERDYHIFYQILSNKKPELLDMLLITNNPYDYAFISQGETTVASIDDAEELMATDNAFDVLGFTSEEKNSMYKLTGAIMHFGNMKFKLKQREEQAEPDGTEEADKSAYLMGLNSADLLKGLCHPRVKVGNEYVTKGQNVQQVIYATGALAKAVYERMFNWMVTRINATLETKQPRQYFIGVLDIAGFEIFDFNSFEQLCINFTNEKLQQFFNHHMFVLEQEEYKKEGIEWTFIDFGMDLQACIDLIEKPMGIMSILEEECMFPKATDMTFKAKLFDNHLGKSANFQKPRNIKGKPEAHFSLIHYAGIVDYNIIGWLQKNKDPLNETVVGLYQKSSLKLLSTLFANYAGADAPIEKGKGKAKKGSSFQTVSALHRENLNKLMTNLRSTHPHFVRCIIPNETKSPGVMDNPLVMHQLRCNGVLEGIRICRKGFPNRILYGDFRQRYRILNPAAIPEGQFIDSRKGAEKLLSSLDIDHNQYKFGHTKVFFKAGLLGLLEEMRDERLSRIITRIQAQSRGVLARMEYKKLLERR
T1 sequence (P08590 2-195 partner limits assumed): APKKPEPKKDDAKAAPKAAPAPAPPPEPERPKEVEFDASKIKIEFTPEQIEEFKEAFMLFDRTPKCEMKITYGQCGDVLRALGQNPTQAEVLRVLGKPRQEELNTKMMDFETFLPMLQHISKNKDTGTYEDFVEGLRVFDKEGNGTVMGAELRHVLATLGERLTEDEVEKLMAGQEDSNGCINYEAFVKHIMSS
Method: The ability of Compound I to increase myocardial ATP turnover rates selectively was evaluated using both left atrial (LA) and left ventricular (LV) myofibrils prepared from Yucatan mini-pig hearts, as well as subfragment-1 (51) myosins from cardiac (recombinant human), skeletal (rabbit psoas) and smooth (chicken gizzard) muscles. Pig hearts were harvested, and the left atria/ventricles were freshly excised, dissected, frozen in liquid nitrogen and stored at −80° C. […]
Steady-state ATPase measurements at varying concentrations of Compound I (0-50 μM, in 2% DMSO) were conducted using a coupled enzyme system utilizing pyruvate kinase and lactate dehydrogenase. This enzyme system couples the formation of ADP to the oxidation of NADH leading to an absorbance change at 340 nm. […] All measurements were carried out at 25° C. using a plate reader (SpectraMax; Molecular Devices, LLC, CA, USA) to monitor the change in absorbance as a function of time; data were normalized to a per-second scale as described in Green et al., Science (2016) 351(6273):617-21. […]

[3] = system: LV (papillary) skinned muscle fibers; assay: Myocardial force generation, LV skinned muscle fibers (tension-pCa, stiffness); type: biochemical, Yucatan mini-pig; conditions: at 3 μM
Method: (§1) The ability of Compound I to increase myocardial force generation at a given Ca2+ concentration was evaluated using LA (n=6) and LV (n=6) skinned muscle fibers prepared from three different Yucatan mini-pig hearts. In short, as previously described, 3 hearts were harvested, rinsed and shipped in cold cardioplegia solution (Custodiol® HTK; Essential Pharmaceuticals, LLC, NC, USA). Upon receipt, LV (papillary) and LA muscle fibers were dissected at 4° C. in a high-relaxing solution (100 mM BES, 10 mM EGTA, 6.57 mM MgCl2, 10 mM creatine phosphate, 6.22 mM ATP, 41.89 mM Kprop, 2.5 μM pepstatin, 1 μM leupeptin, 50 μM PMSF, 5 mM NaN3, pH 7.0). Fiber bundles were cut and skinned (in a high-relaxing solution containing 1% Triton X-100), fitted with aluminum foil t-clips, and mounted on a mechanics apparatus (Aurora Scientific Inc., ON, Canada). Sarcomere length was set to 2.0 μm. Steady-state isometric tension and stiffness (via a 3% stretch over 250 ms) were measured at increasing concentrations of Ca^2+ (pCa 8.0 to 4.5, adjusted to maintain 180 mM ionic strength) twice, first in the absence (control, 1% DMSO) and then in the presence of Compound I (3 μM, 1% DMSO). In all cases, tension values were normalized to the control maximum isometric tension (at pCa 4.5). Active and passive stiffness were calculated by measuring the slope of the early (Ca^2+ dependent) and late phases, respectively, of the tension response to the brief 3% stretches. Data are presented as means (SD) in text or as mean±SEM in figures; EC50 values (and 95% CIs) were calculated using a four-parameter-fit model (GraphPad Prism, GraphPad Software Inc., CA, USA).

LA skinned muscle fibers = assay: Myocardial force generation, LA skinned muscle fibers (tension-pCa, stiffness); type: biochemical, Yucatan mini-pig; conditions: at 3 μM
Method: as §1, with “In all cases, tension values were normalized to the control maximum isometric tension (at pCa 4.5).” left out, “Data are presented as means (SD) in text or as mean±SEM in figures; EC50 values (and 95% CIs) were calculated using a four-parameter-fit model (GraphPad Prism, GraphPad Software Inc., CA, USA).” left out

[4] = Pharmacokinetics in healthy volunteers; conditions: human, in vivo

left atrial (LA) myofibrils, sequence (F1SSF9 2-175): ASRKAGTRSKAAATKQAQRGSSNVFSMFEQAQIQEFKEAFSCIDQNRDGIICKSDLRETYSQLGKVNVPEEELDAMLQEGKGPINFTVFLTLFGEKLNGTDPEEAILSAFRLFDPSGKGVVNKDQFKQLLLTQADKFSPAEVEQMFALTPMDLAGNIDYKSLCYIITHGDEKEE
left atrial (LA) myofibrils, sequence (K7GMH0 entry or part of it): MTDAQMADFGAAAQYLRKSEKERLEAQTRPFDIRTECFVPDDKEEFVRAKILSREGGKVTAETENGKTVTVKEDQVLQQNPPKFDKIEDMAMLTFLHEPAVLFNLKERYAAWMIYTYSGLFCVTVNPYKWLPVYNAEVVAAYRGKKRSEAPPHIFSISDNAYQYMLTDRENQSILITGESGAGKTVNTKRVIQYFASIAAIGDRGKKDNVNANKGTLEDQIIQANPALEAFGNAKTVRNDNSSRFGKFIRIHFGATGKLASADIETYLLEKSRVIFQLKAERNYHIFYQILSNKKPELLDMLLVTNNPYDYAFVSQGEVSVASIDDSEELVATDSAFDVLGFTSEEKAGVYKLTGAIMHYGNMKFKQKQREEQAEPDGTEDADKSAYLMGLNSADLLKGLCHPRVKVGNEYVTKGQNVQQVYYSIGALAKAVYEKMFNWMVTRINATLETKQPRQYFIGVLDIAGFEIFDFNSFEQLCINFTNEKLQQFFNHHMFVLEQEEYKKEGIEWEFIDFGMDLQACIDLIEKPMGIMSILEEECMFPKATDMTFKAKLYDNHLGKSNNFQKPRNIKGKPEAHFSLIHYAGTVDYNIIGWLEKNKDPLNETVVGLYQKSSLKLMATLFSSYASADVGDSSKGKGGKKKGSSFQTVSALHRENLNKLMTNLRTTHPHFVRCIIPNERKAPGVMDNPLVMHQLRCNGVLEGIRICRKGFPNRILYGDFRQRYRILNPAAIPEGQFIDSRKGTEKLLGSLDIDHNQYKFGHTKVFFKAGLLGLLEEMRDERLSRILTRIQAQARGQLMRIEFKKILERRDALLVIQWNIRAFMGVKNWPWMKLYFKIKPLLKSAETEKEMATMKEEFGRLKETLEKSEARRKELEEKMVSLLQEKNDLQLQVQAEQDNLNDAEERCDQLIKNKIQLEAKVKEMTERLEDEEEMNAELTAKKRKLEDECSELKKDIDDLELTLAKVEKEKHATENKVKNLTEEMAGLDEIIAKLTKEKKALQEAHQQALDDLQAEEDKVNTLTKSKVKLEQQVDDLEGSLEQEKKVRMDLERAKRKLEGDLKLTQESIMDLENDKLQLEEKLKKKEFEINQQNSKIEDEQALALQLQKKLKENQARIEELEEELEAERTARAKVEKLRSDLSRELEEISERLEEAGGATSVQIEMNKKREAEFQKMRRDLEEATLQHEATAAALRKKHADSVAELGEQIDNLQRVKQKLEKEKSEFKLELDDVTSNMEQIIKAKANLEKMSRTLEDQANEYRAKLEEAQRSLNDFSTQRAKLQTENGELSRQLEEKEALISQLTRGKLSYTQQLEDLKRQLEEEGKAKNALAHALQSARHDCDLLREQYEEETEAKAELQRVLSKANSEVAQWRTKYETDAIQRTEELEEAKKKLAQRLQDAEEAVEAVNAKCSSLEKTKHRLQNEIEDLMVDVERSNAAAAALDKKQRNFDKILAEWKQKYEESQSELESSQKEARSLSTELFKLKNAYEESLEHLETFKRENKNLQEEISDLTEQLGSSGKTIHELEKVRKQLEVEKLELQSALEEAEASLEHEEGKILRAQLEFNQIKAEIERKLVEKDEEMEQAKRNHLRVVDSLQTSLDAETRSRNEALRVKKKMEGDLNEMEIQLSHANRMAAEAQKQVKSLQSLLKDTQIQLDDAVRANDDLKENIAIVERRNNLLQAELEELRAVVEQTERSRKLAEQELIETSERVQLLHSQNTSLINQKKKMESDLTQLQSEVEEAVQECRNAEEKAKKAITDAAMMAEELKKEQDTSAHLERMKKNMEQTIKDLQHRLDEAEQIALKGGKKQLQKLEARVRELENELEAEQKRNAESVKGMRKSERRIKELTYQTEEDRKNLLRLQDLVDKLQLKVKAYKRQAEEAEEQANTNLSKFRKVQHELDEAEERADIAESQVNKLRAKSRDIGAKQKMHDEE
left atrial (LA) myofibrils, sequence (F1RRT2 2-197, further chain): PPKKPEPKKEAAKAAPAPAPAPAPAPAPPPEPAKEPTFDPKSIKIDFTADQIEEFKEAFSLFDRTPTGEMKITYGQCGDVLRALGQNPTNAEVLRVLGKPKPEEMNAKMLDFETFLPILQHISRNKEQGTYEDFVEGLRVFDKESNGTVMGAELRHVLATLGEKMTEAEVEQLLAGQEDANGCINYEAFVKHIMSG

Cn1cc(S(=O)(=O)[C@@](C)(F)C2CCN(C(=O)Nc3ccon3)CC2)c(C(F)F)n1 [Compound I, (R)-4-(1-((3-(difluoromethyl)-1-methyl-1H-pyrazol-4-yl)sulfonyl)-1-fluoroethyl)-N-(isoxazol-3-yl)piperidine-1-carboxamide]
activation at 3 µM ([1]; at 3 μM, read-out: increase in ATPase, LA porcine myofibrils): 56% | fold induction at 50 µM ([1]; at 50 μM, SD ±0.3, read-out: increase in ATPase turnover rate, atrial myofibrils): 2.3 | increase in ATPase rate, cardiac (human) S1 myosin [2]: 1.4 fold | passive stiffness, ventricular skinned fibers [3]: without altering passive stiffness | increase in LV tension ([3]; pCa 6.0): 43% | maximal force-generation capability, ventricular skinned fibers ([3]; data not shown): without altering | passive stiffness, atrial skinned fibers (LA skinned muscle fibers): without altering passive stiffness | maximal force-generation capability, atrial skinned fibers (LA skinned muscle fibers; data not shown): without altering | Tmax [4]: 4 to 6 h | half-life [4]: ~15 h
